{"source": "patent US20110244506A1", "about": "“EGFR DEPENDENT MODULATION OF CHEMOKINE EXPRESSION AND INFLUENCE ON THERAPY AND DIAGNOSIS OF TUMORS AND SIDE EFFECTS THEREOF” (Merck Patent GmbH, priority 2005, published 2011)", "key": {"[1]": {"system": "ERK1/2 (Thr 202/204)", "assay": "Western blotting of ERK1/2 phosphorylation in keratinocytes", "conditions": "with or without TGFa or TNFa, 24 h"}, "[2]": {"system": "STAT3", "assay": "Western blotting of STAT3 phosphorylation in keratinocytes", "assay_type": "cell-based", "conditions": "with or without TGFa or TNFa, 24 h", "description": "(§1) In these experiments keratinocytes were treated with different concentrations of anti-EGFR inhibitors followed by treatment with or without TGF alpha or TNF alpha for, approximately, 24 h. Effects of anti-EGFR inhibitors were evaluated using Western blotting.\n(§2) After 24 h, cells were lysed and analysed by Western blotting."}, "[3]": {"system": "IL-8, A431", "assay": "Secreted IL-8 levels in A431 (Luminex)", "assay_type": "cell-based", "conditions": "for secreted IL-8 levels: A431, with or without TGFa or TNFa, 24 h, supernatant", "description": "(§3) Tumor cells were treated with anti-EGFR agents and this was followed by treatment with or without TGF alpha or TNF alpha. Secreted chemokines were evaluated in conditioned medium of tumor cells obtained after 24 h. Evaluation was carried out with the Luminex bead technology.\n(§4) After 24 h, cellular supernatants were collected and levels of IL-8 were quantified using the Luminex technology.\n(§5) Cells were treated with 100 ng/ml Cmab or Mmab and stimulated with 100 ng/ml TGFa; number of experiments=1"}, "[4]": {"system": "IL-8, HT29", "assay": "Secreted IL-8 levels in HT29 (Luminex)", "assay_type": "cell-based", "conditions": "100 ng/ml antibody, stimulated with 100 ng/ml TGFa, number of experiments=1", "description": "as §4, §5"}, "[5]": {"target": "EGFR (Tyr 1068) (Homo sapiens, UniProt P00533)", "assay": "Western blotting of EGFR phosphorylation in keratinocytes", "conditions": "with or without TGFa or TNFa, 24 h"}, "[6]": {"system": "RANTES, A431", "assay": "Secreted RANTES levels in A431 (Luminex)", "assay_type": "cell-based", "conditions": "A431, with or without TGFa or TNFa, 24 h, supernatant", "description": "as §3\n(§6) After 24 h, cellular supernatants were collected and levels of RANTES were quantified using the Luminex technology."}, "[7]": {"system": "IL-8, keratinocytes", "assay": "Secreted IL-8 levels in keratinocytes (Luminex)", "assay_type": "cell-based", "conditions": "with or without TGFa or TNFa, 24 h, supernatant", "description": "(§7) Evaluations were carried out with the Luminex bead technology. In these experiments keratinocytes were treated with anti-EGFR inihibitors followed by treatment with or without TGF alpha or TNF alpha.\nas §4"}, "[8]": {"system": "IL-8, PC-3", "assay": "Secreted IL-8 levels in PC-3 (Luminex)", "assay_type": "cell-based", "conditions": "100 ng/ml antibody, stimulated with 100 ng/ml TGFa, number of experiments=1", "description": "as §4, §5"}, "[9]": {"system": "EGFR-dependent signaling cascades, tumor cell lines such as A431", "assay": "EGFR-dependent signaling cascades in tumor cell lines", "assay_type": "cell-based", "conditions": "various tumor cell lines such as A431"}, "[10]": {"system": "RANTES, keratinocytes", "assay": "Secreted RANTES levels in keratinocytes (Luminex)", "assay_type": "cell-based", "conditions": "with or without TGFa or TNFa, 24 h, supernatant", "description": "as §7, §6"}, "[11]": {"system": "IL-8, DiFi", "assay": "Secreted IL-8 levels in DiFi (Luminex)", "assay_type": "cell-based", "conditions": "100 ng/ml antibody, stimulated with 100 ng/ml TGFa, number of experiments=1", "description": "as §4, §5"}, "[12]": {"system": "IL-8, MCF-7", "assay": "Secreted IL-8 levels in MCF-7 (Luminex)", "assay_type": "cell-based", "conditions": "100 ng/ml antibody, stimulated with 100 ng/ml TGFa, number of experiments=1", "description": "as §4, §5"}, "[13]": {"system": "IP-10, A431", "assay": "Secreted IP-10 levels in A431 (Luminex)", "assay_type": "cell-based", "conditions": "A431, with or without TGFa or TNFa, 24 h, supernatant", "description": "as §3\n(§8) After 24 h, cellular supernatants were collected and levels of IP-10 were quantified using the Luminex technology."}, "[14]": {"system": "IP-10, keratinocytes", "assay": "Secreted IP-10 levels in keratinocytes (Luminex)", "assay_type": "cell-based", "conditions": "with or without TGFa or TNFa, 24 h, supernatant", "description": "as §7, §8"}, "[15]": {"system": "COX-2", "assay": "Western blotting of COX-2 protein in keratinocytes", "assay_type": "cell-based", "conditions": "with or without TGFa or TNFa, 24 h", "description": "as §1, §2"}, "[16]": {"system": "IL-8, tumor cell lines (DiFi, HT29, A431, MCF-7, PC-3 and U87 MG)", "assay": "Secreted IL-8 levels in different tumor cell lines (Luminex)", "assay_type": "cell-based", "conditions": "stimulated with TGFa, 24 h", "description": "as §4"}, "[17]": {"system": "IL-8, U87MG", "assay": "Secreted IL-8 levels in U87MG (Luminex)", "assay_type": "cell-based", "conditions": "100 ng/ml antibody, stimulated with 100 ng/ml TGFa, number of experiments=1", "description": "as §4, §5"}}, "data": [{"compound": "Matuzumab: humanized monoclonal antibody 425 directed to the EGF receptor", "values": [{"measurement": "phosphorylation of ERK1/2 (Thr 202/204)", "setting": "[1]", "result": "prevented phosphorylation"}, {"measurement": "phosphorylation of STAT3", "setting": "[2]", "result": "prevented phosphorylation of STAT3"}, {"measurement": "secreted IL-8 levels", "setting": "[3]", "result": "down-regulated IL-8 in a dose-dependent manner"}, {"measurement": "IL-8 levels", "setting": "[3]; A431, 100 ng/ml antibody, stimulated with 100 ng/ml TGFa, number of experiments=1", "result": 15, "unit": "% control"}, {"measurement": "IL-8 levels", "setting": "[4]", "result": 30, "unit": "% control"}, {"measurement": "phosphorylation of EGFR (Tyr 1068)", "setting": "[5]", "result": "prevented phosphorylation"}, {"measurement": "secreted RANTES levels", "setting": "[6]", "result": "up-regulated RANTES in a dose-dependent manner"}, {"measurement": "secreted IL-8 levels", "setting": "[7]", "result": "down-regulated IL-8 in a dose-dependent manner"}, {"measurement": "IL-8 levels", "setting": "[8]", "result": 76, "unit": "% control"}, {"measurement": "EGFR-dependent signaling cascades", "setting": "[9]", "result": "interferes with EGFR-dependent signaling cascades"}, {"measurement": "secreted RANTES levels", "setting": "[10]", "result": "up-regulated RANTES in a dose-dependent manner"}, {"measurement": "IL-8 levels", "setting": "[11]", "result": 28, "unit": "% control"}, {"measurement": "IL-8 levels", "setting": "[12]", "result": 49, "unit": "% control"}, {"measurement": "secreted IP-10 levels", "setting": "[13]", "result": "up-regulated IP-10 in a dose-dependent manner"}, {"measurement": "secreted IP-10 levels", "setting": "[14]", "result": "up-regulated IP-10 in a dose-dependent manner"}, {"measurement": "expression of COX-2", "setting": "[15]", "result": "induced expression of COX-2"}, {"measurement": "secreted IL-8 levels", "setting": "[16]", "result": "down-regulated IL-8 in all tumor cell lines investigated in a dose-dependent manner"}, {"measurement": "IL-8 levels", "setting": "[17]", "result": 58, "unit": "% control"}]}, {"compound": "COc1cc2ncnc(Nc3ccc(F)c(Cl)c3)c2cc1OCCCN1CCOCC1", "note": "[Iressa, gefitinib, reference compound]", "values": [{"measurement": "phosphorylation of ERK1/2 (Thr 202/204)", "setting": "[1]", "result": "prevented phosphorylation"}, {"measurement": "phosphorylation of STAT3", "setting": "[2]", "result": "prevented phosphorylation of STAT3"}, {"measurement": "secreted IL-8 levels", "setting": "[3]", "result": "down-regulated IL-8 in a dose-dependent manner"}, {"measurement": "secreted RANTES levels", "setting": "[6]", "result": "up-regulated RANTES in a dose-dependent manner"}, {"measurement": "secreted IL-8 levels", "setting": "[7]", "result": "down-regulated IL-8 in a dose-dependent manner"}, {"measurement": "secreted RANTES levels", "setting": "[10]", "result": "up-regulated RANTES in a dose-dependent manner"}, {"measurement": "secreted IP-10 levels", "setting": "[13]", "result": "up-regulated IP-10 in a dose-dependent manner"}, {"measurement": "secreted IP-10 levels", "setting": "[14]", "result": "up-regulated IP-10 in a dose-dependent manner"}, {"measurement": "expression of COX-2", "setting": "[15]", "result": "induced expression of COX-2"}]}]}
